# Where two headings read alike, the source gives them in different places. Square brackets hold non-standard residues; d marks the D form. Peptide text beside a SMILES is read from it.
# Key:
# rat sciatic nerve = assay: Epineurial application of drug to rat sciatic nerve, spontaneous hindpaw flinching; assay type: in vivo
# Excerpt: (§1) Surgical Procedures. Adult male Sprague Dawley rats (175-225 g) were anesthetized with an intermediate-onset, short-acting volatile anesthetic (Sevaflurane, Abbott Laboratories, North Chicago, Ill.). After shaving of the hair over the left or right flank and incision of the skin, blunt dissection was made through the biceps femoris, the sciatic nerve exposed by careful microdissection away from the surrounding connective tissue, and gently elevated by insertion of a small curved hemostat placed beneath it. Following drug administration, as described below, the biceps femoris was closed with a single silk suture, and the skin closed with surgical staples.
# (§2) Drug administration. The following drugs were applied epineurially: 1) 40-800 μM endothelin-1 (ET-1) (synthetic, 98% pure peptide content, American Peptides Co., Sunnyvale, Calif.); 2) the selective endothelin-A receptor antagonist, BQ-123 (American Peptides Co.; Sunnyvale, Calif.) at 3 mM; 3) the selective endothelin-B receptor antagonist, BQ-788 (American Peptides Co.; Sunnyvale, Calif.) at 3 mM; and 400 μM epinephrine (American Regent Laboratories, Inc., Shirley, N.Y.).
# (§3) All drugs were dissolved in phosphate buffered saline (PBS, pH=7.4), and applied in 40 μl volumes to the epineurial surface of the exposed sciatic nerve (n=10 rats/condition). The total time for each drug application was 3-4 min. BQ-123 and BQ-788 were applied in 3 stages: 20 min prior to, 10 min prior to and 30 sec before ET-1 application. PBS was administered to control animals. Excess drug or PBS solution was absorbed by cotton gauze placed at the edge of the exposed nerve.
# In experiments involving repeated administration of ET-1, animals were re-anesthetized 75-80 min after surgery (time point after which no further hindpaw flinching was observed, as described below), and 400 μM ET-1 was applied in the same volume, as described above. Behavioral evaluation was performed, as described below, for an additional 60 min.
# (§4) Behavioral evaluation. […] Behavioral measurements were then performed with animals freely moving on a flat surface enclosed by an inverted large Plexiglas cage. The total number of ipsilateral and contralateral spontaneous hindpaw flinches (operationally defined as complete lifting of the hindpaw off the testing surface) were counted for consecutive 5 minute periods for a total 60 minute observation period. The total duration of hindpaw lifting and time spent exploring were also recorded.
# Data Analysis. The peak frequency of hindpaw flinching, effects at 10 min post-drug administration, and area-under-the-curve (without approximation) from 0-60 min were all used to describe response-concentration functions.
# E1A cells = assay: Microfluorometry (Fura-2) of intracellular calcium in E1A cells; assay type: cell-based, rat
# Experimental: Microfluorometry in E1A cells. E1A cells (retrovirally-transformed rat dorsal root ganglion cells) were grown as a monolayer on poly-L-lysine coated coverslips in Dulbecco's modified eagle media supplemented with 10% fetal bovine serum at 37° C. in a humified atmosphere (5% CO2−95% air). Cells were used 48-72 hours after plating, at a confluence of 75 to 90%. The concentration of intracellular calcium was determined by dual excitation microfluorometry, using the calcium sensitive dye Fura-2 (Grynkiewicz, et.al., J. Biol. Chem. 260: 3440-3450, 1985). E1A cells were washed once with D-PBS (with Ca^++) and then incubated for 30 min at room temperature in D-PBS (with Ca^++) containing 7.5 μM Fura-2/AM and 0.00125% (wt/vol) pluronic-DMSO. The cells were then washed twice in D-PBS (with Ca^++) and incubated for an additional 30 minutes to allow cleavage of the Fura-2/AM to the active Fura-2.
# Experiments were conducted with the coverslips in a perfusion chamber of 0.4 ml, with a constant flow rate of 4 ml/min. Each coverslip was equilibrated in D-PBS for 2 min prior to beginning an experiment. […]
# Microfluorometry was performed with an inverted epifluoroscence microscope connected to a light source which provided two alternating wavelengths (Photon Technology International Deltascan). […] Background fluorescence was subtracted from each trial.
# CCI rats = assay: Thermal hyperalgesia (hindpaw withdrawal latency) after sciatic nerve CCI; assay type: in vivo, rat
# Experimental: (§5) CCI surgery. The sciatic nerve of a rat was exposed after blunt dissection of the biceps femoris. Four chromic gut ligatures (4-0) were placed around a […] section of sciatic nerve in the mid-thigh region. The ligatures were applied so that they constricted the diameter of the nerve just enough to impede circulation through the superficial vasculature (as visualized under an operating microscope at 40×). Sham-operated rats received an identical exposure of the left sciatic nerve without CCI. A coding system blinded the investigators to the nature of the surgery performed on individual rats.
# Dexamethasone inhibits CCI-induced pain sensitivity. […] Thermal hyperalgesia was defined as a reduction in the latency to hindpaw withdrawal during a thermal stimulus applied to the plantar surface. […] Presumably, chemotactic signals overwhelmed the effects of DEX by 10 days to account for differences from baseline and between hindpaws at this timepoint (FIG. 8B).
# circulating leukocytes = conditions: for Mean number of leukocytes: cyclophosphamide 100 mg/kg
# Excerpt: Complete blood counts were serially determined on all animals receiving treatments.
# normal rats = conditions: cyclophosphamide treatment, FIGS. 11A and B
# Experimental: For these experiments only, different groups of treated animals were tested (alternating fashion) on each test day to limit the amount of blood drawn.
# [1] = system: ET-1-induced hindpaw flinching; assay: Blockade of ET-1-induced hindpaw flinching; assay type: in vivo, rat; conditions: for effect on ET-1 induced hindpaw flinching: antagonist 3 mM epineurial, 20, 10 and 0 min prior to ET-1 400 μM; for significance of difference from ET-1 alone in hindpaw flinching (FIG. 3): antagonist 3 mM, 20, 10 and 0 min prior to ET-1 400 μM
# Excerpt: as §1, §2, §3
# Morphine was administered systemically immediately before anesthesia (10 mg/kg, ip). Naloxone was administered systemically 20 min after the completion of ET-1 application (2 mg/kg, ip).
# as §4
# [2] = system: sciatic nerve in rats with a chronic constriction injury; assay: Leukocytic profiles in sciatic nerve sections after CCI; assay type: in vivo, rat
# Experimental: as §5
# Histology. To compare the extent and type of cellular inflammation around the peripheral nerve due to CCI between DEX- and saline-treated rats, the ligated sciatic nerve was processed for histological analysis. At 3, 5, 7, and 10 days post-CCI, animals were euthanized with 100 mg/kg intraperitoneal sodium pentobarbital, and then transcardially perfused first with 50 ml of cold 0.9% NaCl, 1 ml/g body weight of 4% paraformaldehyde in 0.01 M phosphate buffered saline, pH 7.4 (PBS). A 2-3 cm section of sciatic nerve, or a 1 cm section of L5 and L6 spinal nerves, which included material at the ligation site, as well as that just proximal and distal to ligation, was placed in 0.01 M PBS, 4% paraformaldehyde to post-fix for 2 hours. Tissue was then embedded in paraffin, cut in 10-30 μm sections on a vibratome, and placed on glass slides. Slides were deparaffinized and then hydrated in distilled water prior to staining in freshly filtered Harris' hematoxylin for 6-15 min. After washing in running tap water for 2-5 min, sections were differentiated in 1% acid alcohol, washed briefly in tap water, and then placed in weak ammonia water until sections are bright blue. The sections were then washed thoroughly in running tap water, transferred to 80% ethanol, and then counterstained in eosin-phloxine solution prior to dehydration and mounting with Permount.
# Quantitation of leukocytes in nerve sections. To detect leukocytes in injured peripheral nerve, both cellular and […] were used. To be included in the leukocyte cell count, leukocytes had to 1) have a nucleus which was clearly visible and characteristic of an infiltrating macrophage (bean-shaped nucleus), neutrophil (polymorphic nucleus) or lymphocyte (dense nucleus that fills the cytoplasm); 2) have a “foamy” macrophage appearance typical of a myelin-ingesting phagocytes; and 3) be present within the endoneurial space. Cells present within vascular spaces or containing nuclei that could not be clearly differentiated from activated Schwann cells, fibroblasts or endothelial cells were not counted.
# [3] = naloxone 2 mg/kg ip, 20 min after ET-1
molecule,measurement,setting,value
endothelin-1 [ET-1],time of peak of flinching behavior and postural changes,rat sciatic nerve; 400 μM ET-1,≤ 30 min
same,"repetitive, spontaneous hindpaw flinching","rat sciatic nerve; 400 μM ET-1, 40 μl epineurial, 10-60 min post-administration, vs PBS",increased
same,effect at high concentration on hindpaw flinching,rat sciatic nerve; 800 μM,apparent inhibitory effect
same,concentration giving maximum frequency of hindpaw flinching,rat sciatic nerve; 40-800 μM tested,400 µM
same,EC50,"rat sciatic nerve; 10 minutes post ET-1 administration, FIG. 4B, read-out: concentration of half-maximal effect on hindpaw flinching",300 µM
same,hindpaw flinching and postural changes after application onto or into muscles surrounding sciatic nerve,"rat sciatic nerve; same concentration of ET-1, muscle not nerve",neither increased hindpaw flinching nor postural changes
same,hindpaw flinching after second (repeat) treatment,"rat sciatic nerve; second 400 μM ET-1, 15-20 min after first 60 min testing period",did not produce hindpaw flinching that was significantly different from controls
same,intracellular Ca++ level reached after ET-1,"E1A cells; 400 μl pulse of 13.5 μM ET-1, resting level 50-100 nM",~500 nM
same,Fura-2 fluorescence during ET-1 administration,"E1A cells; E1A cells, FIG. 7","large, rapid, and transient increase"
"O=P1(N(CCCl)CCCl)NCCCO1 (centres unmarked) [Cyclophosphamide, cyclophosphamide]",effect on hyperalgesia response in CCI-treated rats,"CCI rats; CYCLO 100 mg/kg alternate days×3 prior to CCI, until leukocyte counts returned toward normal 10 days post-surgery",blocked the hyperalgesia response
same,effect on circulating leukocyte numbers,"circulating leukocytes; 100 mg/kg on alternate days×3 days, pre-operatively",markedly reduced
same,Mean number of leukocytes,circulating leukocytes; 1 day,0.4 ± 0.1 10^3/ml
same,Mean number of leukocytes,circulating leukocytes; 3 days,1.0 ± 0.3 10^3/ml
same,Mean number of leukocytes,circulating leukocytes; 5 days,0.5 ± 0.4 10^3/ml
same,Mean number of leukocytes,circulating leukocytes; 8 days,4.6 ± .6 10^3/ml
same,Mean number of leukocytes,circulating leukocytes; 10 days,7.3 ± 1.8 10^3/ml
same,Mean number of leukocytes,circulating leukocytes; Baseline,9.2 ± 0.7 10^3/ml
same,Total white blood cell counts,"circulating leukocytes; CYCLO-treated CCI rats, normal rats approximately 9×10^3",< 1000 µL⁻¹
same,analgesic effect with respect to thermal pain stimulation in normal animals,normal rats,no analgesic effects
C=CCN1CC[C@]23c4c5ccc(O)c4O[C@H]2C(=O)CC[C@@]3(O)[C@H]1C5 [Naloxone],duration of reversal of the effect of morphine,[1]; [3],approximately 10 min
same,reversal of the effect of morphine on ET-1-induced flinching,[1]; [3],rapidly reversed the effect of morphine
CNC[C@H](O)c1ccc(O)c(O)c1 [epinephrine],hindpaw flinching after epinephrine applied to sciatic nerve,"rat sciatic nerve; 400 μM, 60 min observation period",no evidence of hindpaw flinching
"C[C@@H]1C[C@H]2[C@@H]3CCC4=CC(=O)C=C[C@]4(C)[C@@]3(F)[C@@H](O)C[C@]2(C)[C@@]1(O)C(=O)CO [DEX, Dexamethasone]",period post-CCI with differences from baseline and contralateral hindpaw eliminated,CCI rats; DEX 1.5 mg/kg i.p. daily,3 to 7 days
same,Number of leukocytic profiles in sciatic nerve,"[2]; 3 days post-CCI, six high-power fields (0.238 mm^2), mean ± S.D.",4.2 ± 0.92
same,Number of leukocytic profiles in sciatic nerve,"[2]; 5 days post-CCI, six high-power fields, n = 1",12.8
same,Number of leukocytic profiles in sciatic nerve,"[2]; 7 days post-CCI, six high-power fields, mean ± S.D.",23.3 ± 26.9
same,Number of leukocytic profiles in sciatic nerve,"[2]; 10 days post-CCI, six high-power fields, mean ± S.D.",25.7 ± .9
CCCC[C@@H](NC(=O)[C@@H](Cc1cn(C(=O)OC)c2ccccc12)NC(=O)[C@H](CC(C)(C)C)NC(=O)N1[C@H](C)CCC[C@@H]1C)C(=O)O [BQ-788],effect on ET-1 induced hindpaw flinching,[1],reduced hindpaw flinching significantly only at the 40 and 45 min timepoints
same,significance of difference from ET-1 alone in hindpaw flinching (FIG. 3),[1],significant at 45 and 50 min
CC(C)C[C@@H]1NC(=O)[C@@H](C(C)C)NC(=O)[C@@H]2CCCN2C(=O)[C@@H](CC(=O)O)NC(=O)[C@@H](Cc2c[nH]c3ccccc23)NC1=O [BQ-123] (cyclo(L[dW][dD]P[dV])),effect on ET-1 induced hindpaw flinching,[1],completely blocked
same,significance of difference from ET-1 alone in hindpaw flinching (FIG. 3),[1],significant at every time point after 5 min
CN1CC[C@]23c4c5ccc(O)c4O[C@H]2[C@@H](O)C=C[C@H]3[C@H]1C5 [morphine],effect on flinching induced by ET-1,"[1]; morphine 10 mg/kg ip immediately before anesthesia, ET-1 400 μM",completely blocked

# Source: patent US6673832B1, “Methods for identifying compounds for treating pain” (priority 1998, dated 2004)
